EC50 data for 10 molecules are collected here from patent publication US20230033285A1, “Protease Inhibitors for Treatment of Coronavirus Infections” (The Scripps Research Institute, priority 2021, published 2023).

Some results are limits rather than exact numbers.

The test system of one test is SARS-CoV-2. Description: microbe, parasite or virus in culture. The conditions noted are these: Severe acute respiratory syndrome coronavirus 2, HeLa-ACE2, 24 h, read-out: EC50, μM (Hela). The test is classed as cell-based.
The term EC50 denotes the concentration that produces a half-maximal response. Turning to `CC(C)(C)[C@H](NC(=O)C(F)(F)F)C(=O)N1C[C@H]2[C@@H]([C@H]1C(=O)N[C@H](C#N)C[C@@H]1CCCNC1=O)C2(C)C` [Compound 63, (1R,2S,5S)-N-((S)-1-cyano-2-((S)-2-oxopiperidin-3-yl)ethyl)-3-((S)-3,3-dimethyl-2-(2,2,2-trifluoroacetamido)butanoyl)-6,6-dimethyl-3-azabicyclo[3.1.0]hexane-2-carboxamide], the EC50 is less than 0.05 µM.

The same test, now with this note: Severe acute respiratory syndrome coronavirus 2; HeLa-ACE2 cells infected with SARS-CoV-2, 24 h, immunofluorescence of infected cells; read-out: EC50, μM (Hela).
On to `CC(C)(C)C[C@H](NC(=O)C(=O)NC(C)(C)C)C(=O)N[C@@H](C[C@@H]1CCCNC1=O)C(=O)CO` [Compound 89, N^1-(tert-butyl)-N^2-((S)-1-(((S)-4-hydroxy-3-oxo-1-((S)-2-oxopiperidin-3-yl)butan-2-yl)amino)-4,4-dimethyl-1-oxopentan-2-yl)oxalamide], for which the half-maximal effective concentration (EC50) was in the range of 0.05 to 0.2 µM.

For `CC(C)C[C@H](NC(=O)C(=O)NC1(C)CC1)C(=O)N[C@H](C=O)C[C@@H]1CCNC1=O` [Compound 43, N^1-((S)-4-methyl-1-oxo-1-(((S)-1-oxo-3-((S)-2-oxopyrrolidin-3-yl)propan-2-yl)amino)pentan-2-yl)-N^2-(1-methylcyclopropyl)oxalamide], the EC50 is greater than 1 µM.

Turning to `CC(C)C[C@H](NC(=O)C(=O)Nc1ccccc1F)C(=O)N[C@@H](C[C@@H]1CCNC1=O)C(=O)COC(=O)C1CCN(C2CCCCC2)CC1` [Compound 6, (S)-3-((S)-2-(2-((2-fluorophenyl)amino)-2-oxoacetamido)-4-methylpentanamido)-2-oxo-4-((S)-2-oxopyrrolidin-3-yl)butyl 1-cyclohexylpiperidine-4-carboxylate], the EC50 fell in the range of 0.05 to 0.2 µM.

Consider `CC(C)C[C@H](NC(=O)C(=O)Nc1ccccc1F)C(=O)N[C@H](C=O)C[C@@H]1CCCNC1=O` [Compound 41, N^1-(2-fluorophenyl)-N^2-((S)-4-methyl-1-oxo-1-(((S)-1-oxo-3-((S)-2-oxopiperidin-3-yl)propan-2-yl)amino)pentan-2-yl)oxalamide], for which the EC50 was 0.05 to 0.2 µM.

On to `CC(C)C[C@H](NC(=O)c1cc(-c2ccccn2)on1)C(=O)N[C@H](C=O)C[C@@H]1CCCNC1=O` [Compound 127, N-((S)-4-methyl-1-oxo-1-(((S)-1-oxo-3-((S)-2-oxopiperidin-3-yl)propan-2-yl)amino)pentan-2-yl)-5-(pyridin-2-yl)isoxazole-3-carboxamide], for which the 50% effective concentration (EC50) lay in the range of 0.5 to 1 µM.

Consider `CC(C)C[C@H](NC(=O)OCc1cccc(Cl)c1)C(=O)N[C@@H](C[C@@H]1CCNC1=O)C(=O)COC(=O)C(C)C` [Compound 120, (S)-3-((S)-2-((((3-chlorobenzyl)oxy)carbonyl)amino)-4-methylpentanamido)-2-oxo-4-((S)-2-oxopyrrolidin-3-yl)butyl isobutyrate], for which the EC50 was greater than 1 µM.

With `CC1(C[C@H](NC(=O)C(=O)NC23CC(F)(C2)C3)C(=O)N[C@@H](C[C@@H]2CCNC2=O)C(=O)CO)CCC1` [Compound 97, N^1-(3-fluorobicyclo[1.1.1]pentan-1-yl)-N^2-((S)-1-(((S)-4-hydroxy-3-oxo-1-((S)-2-oxopyrrolidin-3-yl)butan-2-yl)amino)-3-(1-methylcyclobutyl)-1-oxopropan-2-yl)oxalamide], the EC50 lay within 0.05 to 0.2 µM.

For the molecule `CC(C)CC(=O)OCC(=O)[C@H](C[C@@H]1CCNC1=O)NC(=O)[C@H](CC(C)C)NC(=O)C(=O)Nc1ccccc1F` [Compound 103, (S)-3-((S)-2-(2-((2-fluorophenyl)amino)-2-oxoacetamido)-4-methylpentanamido)-2-oxo-4-((S)-2-oxopyrrolidin-3-yl)butyl 3-methylbutanoate], the concentration for a half-maximal effect (EC50) was in the range of 0.05 to 0.2 µM.

`CC(=O)OCC(=O)[C@H](C[C@@H]1CCNC1=O)NC(=O)[C@H](CC(C)C)NC(=O)C(=O)Nc1ccccc1F` [Compound 106, (S)-3-((S)-2-(2-((2-fluorophenyl)amino)-2-oxoacetamido)-4-methylpentanamido)-2-oxo-4-((S)-2-oxopyrrolidin-3-yl)butyl acetate]: the EC50 was in the range of 0.05 to 0.2 µM.
